Among the data in ChEMBL document CHEMBL4680308, “Chemo-enzymatic synthesis of adenine substituted nicotinic acid adenine dinucleotide phosphate (NAADP) analogs” (Bioorg Med Chem, 2021) are EC50 and IC50 values, retold here.

A short description of test [1]: Agonist activity at NAADP receptor in sea urchin egg homogenate assessed as increase in calcium release by fluo-3 based flurometric assay. In kind it is tissue-based, Strongylocentrotus purpuratus.
Test [2] is described as follows: Desensitization of NAADP receptor in sea urchin egg homogenate assessed as ability to induce time dependent sub-threshold desensitization of calcium release pretreated for 7 mins followed by 1 uM NAADP added by measuring inhibition of calcium release by fluorometric assay. Format: tissue-based, Strongylocentrotus purpuratus.

A word on the EC50: it is the concentration giving half of the maximal effect. The term IC50 denotes the midpoint of a concentration-inhibition curve. For `Nc1ncnc2c1ncn2[C@@H]1O[C@H](COP(=O)(O)OP(=O)(O)OC[C@H]2O[C@@H]([n+]3cccc(C(=O)[O-])c3)[C@H](O)[C@@H]2O)[C@@H](O)[C@H]1OP(=O)(O)O`, the EC50 in test [1] worked out at 8 nM. Besides, the IC50 in test [2] came to 0.14 nM.

As for `C#Cc1nc2c(N)ncnc2n1[C@@H]1O[C@H](COP(=O)(O)OP(=O)(O)OC[C@H]2O[C@@H]([n+]3cccc(C(=O)[O-])c3)[C@H](O)[C@@H]2O)[C@@H](O)[C@H]1OP(=O)(O)O`, in test [1], the EC50 was found to be 710 nM. Besides, in test [2], the IC50 was 12.1 nM.

In the case of `C#Cc1nc2c(N)ncnc2n1[C@@H]1O[C@H](COP(=O)(O)OP(=O)(O)OC[C@H]2O[C@@H]([n+]3cc(N=[N+]=[N-])cc(C(=O)[O-])c3)[C@H](O)[C@@H]2O)[C@@H](O)[C@H]1OP(=O)(O)O`, in test [1], the EC50 stood at 2860 nM. For the same compound, the IC50 in test [2] was found to be 99 nM.
